Source: US20180087079A1, “METHODS OF USING CELL-CYCLE INHIBITORS TO MODULATE ONE OR MORE PROPERTIES OF A CELL CULTURE” (AMGEN INC., priority 2013, published 2018)

Key:
[1] = test system: CHO cells; experiment: Cell cycle analysis: propidium iodide staining and FACS; type: cell-based, Chinese hamster; settings: 5 microM
Method: In one set of experiments, a cell cycle analysis was performed for various cell cycle inhibitory compounds. Briefly, CHO cells are grown in 24 deep well plate (for example, Corning Axygen deep well plates; Corning, Amsterdam, The Netherlands), using standard cell-culture medium, under conditions promoting growth of the cells (for example 36 degreesC, 5% CO2) in the presence of various cell cycle inhibitors. Samples are collected at various time points, and cell cycle profiles are obtained by propidium iodide (PI) staining followed by fluorescence-activated cell sorting (FACS) analysis. Results for compounds 6-acetyl-8-cyclopentyl-5-methyl-2-((5-(1-piperazinyl)-2-pyridinyl)amino)pyrido[2,3-d][…] (Compound A) and N-(6-(4-(dimethylamino)-1-piperidinyl)-3-pyridazinyl)-9-(trans-4-methylcyclohexyl)-9H-pyrido[4′,3′,:4,5]pyrrolo[2,3-d]pyrimidin-2-amine (Compound B) are shown in Table 1 below.

[2] = test system: transfected CHO cells expressing recombinant human monoclonal antibody (cell line 1); experiment: 24-deep well culture, cell line 1: VCD, viability, titer, qP; type: cell-based, Chinese hamster; settings: for Titer / VCD / Viability / qP: Cell Line 1, 5 microM
Procedure, shortened: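 Antibody-expressing CHO lines were grown in 24-deep-well plates with or without compound. Cultures were sampled at set time points for VCD (10^6 cells/mL), viability, titer (g/L, by Protein A HPLC) and specific productivity qP (pg/cell/day). High-molecular-weight species and Mannose 5 share were also measured.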

[3] = target: T1, CDK4/Cyclin D1 (Homo sapiens, UniProt P11802); experiment: CDK4 filtration kinase assay; type: biochemical; settings: CDK4/Cyclin D1, Rb fragment substrate, [33P]-ATP
T1 construct: purchased Cell Signaling Technology
T1 sequence (P11802 whole entry, species assumed, the tested form may be a part): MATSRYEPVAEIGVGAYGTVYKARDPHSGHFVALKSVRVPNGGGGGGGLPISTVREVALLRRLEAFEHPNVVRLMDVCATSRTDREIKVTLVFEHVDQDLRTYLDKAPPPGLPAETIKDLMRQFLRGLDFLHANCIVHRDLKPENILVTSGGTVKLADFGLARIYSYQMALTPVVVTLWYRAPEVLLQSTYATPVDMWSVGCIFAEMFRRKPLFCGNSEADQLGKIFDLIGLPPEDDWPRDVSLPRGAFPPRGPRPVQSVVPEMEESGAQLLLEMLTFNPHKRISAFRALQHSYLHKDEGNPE
T1 sequence (P24385 whole entry partner, species assumed, the tested form may be a part): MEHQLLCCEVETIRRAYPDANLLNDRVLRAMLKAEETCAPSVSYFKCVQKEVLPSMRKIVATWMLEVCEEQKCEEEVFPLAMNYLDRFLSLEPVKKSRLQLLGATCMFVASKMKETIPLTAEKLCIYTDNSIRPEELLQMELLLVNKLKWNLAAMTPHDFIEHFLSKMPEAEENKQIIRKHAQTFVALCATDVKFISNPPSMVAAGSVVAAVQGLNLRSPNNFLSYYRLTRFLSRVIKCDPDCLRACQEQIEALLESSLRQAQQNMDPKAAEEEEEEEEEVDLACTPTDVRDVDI
Method: The CDK4 inhibitory activity of the cell cycle inhibitors was determined with a filtration kinase assay. The compounds, kinase and substrate diluted in the kinase buffer (20 mM Tris, pH7.4, 50 mM NaCl, 1 mM DTT, 0.1% BSA) were sequentially added to a 96-well Multiscreen HTS filtration plate (Millipore). The final 100 μL reaction mixture in each well contained 0.3 μg of CDK4/Cyclin D1 (Cell Signaling Technology), 1 μg of Rb fragment (aa773-928, Millipore) for the CDK4 assay and 1 μCi of [^33P]-ATP. The mixture was incubated at room temperature for 1 hour. The proteins in the reaction were then precipitated and washed with cold TCA solution using an aspiration/filtration vacuum system. The plates were dried at room temperature, and the retained radioactivity was measured by scintillation counting. IC50 values of the compounds in the above assays were determined by non-linear regression analysis using Prism (GraphPad Software).

[4] = test system: transfected CHO cells expressing recombinant human monoclonal antibody (cell line 2); experiment: 24-deep well culture, cell line 2: VCD, viability, titer, qP; type: cell-based, Chinese hamster
Method: Transfected CHO cells expressing a recombinant human monoclonal antibody (mAb) are cultured in 24-deep well plates with seeding density at 1×10^7/mL for five days. At certain time periods, samples of the cultures are taken and evaluated for viable cell density (VCD; expressed in 10^6 cells/mL); percent viability (as determined by trypan blue exclusion); titer of recombinant protein (expressed in grams of protein per liter of culture, or g/L, as determined by Protein A affinity HPLC); qP, or specific productivity (expressed in picograms of recombinant protein per cell per day, or pg/c/d), the presence or absence of high molecular weight substances (usually an indicator of protein aggregation; expressed as % of the total protein); and the relative percentage of Mannose 5, a major intermediate glyco-form that attaches to N297 of the mAb. N-linked glycosylation has an impact on the tertiary structure of the antibody and may affect Fc mediated antibody effector functions. The majority of the human Fc glycans are complex biantennary structures with galactose as the prevalent terminal sugar. Immature glyco-forms, such as high-mannose glycol-forms (Man5-9), are of concern due to potential higher plasma clearance rate (as compared to the clearance rate of complex glycan linked mAbs).
Compounds are further evaluated essentially as described in Example 2 herein. Briefly, transfected CHO cells expressing recombinant human monoclonal antibody (mAb; two different cell lines expressing two different mAb, referred to as cell line 1 and cell line 2) are cultured in 24-deep well plates in the presence or absence of the compounds. At specified time points, samples of the cultures are taken and evaluated for viable cell density (VCD; expressed in 10^6 cells/mL); percent viability (as determined by any method known in the art); titer of recombinant protein (expressed in grams of protein per liter of culture, or g/L, as determined by Protein A affinity HPLC); qP, or specific productivity (expressed in picograms of recombinant protein per cell per day, or pg/c/d). Additional parameters measure include the presence or absence of high molecular weight substances (usually an indicator of protein aggregation; expressed as % of the total protein); and the relative percentage of Mannose 5. For comparison purposes, Compounds A and B, which had been previously tested, were tested again.

[5] = test system: Colo205; experiment: [14C]-thymidine incorporation cell proliferation inhibition assay; type: cell-based; settings: Homo sapiens, COLO 205, 72 hour incubation
Method: The cell proliferation inhibition potency of the cell cycle inhibitors was determined by using a [^14C]-thymidine incorporation assay. Exponentially growing cells (Colo205) were seeded in a 96-well Cytostar T plate (GE Healthcare Biosciences) at a density of 5×10^3 cells/well and incubated overnight. Serially diluted compounds and 0.1 μCi of [^14C]-thymidine (GE Healthcare Biosciences) were added to each well on the following day. After 72 hour incubation, isotope incorporation was determined with a β plate counter (Wallac). IC50 values of the compounds in the above assays were determined by non-linear regression analysis using Prism (GraphPad Software).

For `CN(C)C1CCN(c2ccc(Nc3ncc4c5ccncc5n([C@H]5CC[C@H](C)CC5)c4n3)nn2)CC1` [Compound B, N-(6-(4-(dimethylamino)-1-piperidinyl)-3-pyridazinyl)-9-(trans-4-methylcyclohexyl)-9H-pyrido[4′,3′,:4,5]pyrrolo[2,3-d]pyrimidin-2-amine], the “Cell Cycle Distribution (%) G1” value ([1]; Day 1) was 91.22%, the “Cell Cycle Distribution (%) G2/M” value ([1]; Day 1) was 2.74% and the “Cell Cycle Distribution (%) S” value ([1]; Day 1) was 6.04%. For the same molecule, the “Cell Cycle Distribution (%) G1” value ([1]; Day 2) was 74.82%, the “Cell Cycle Distribution (%) G2/M” value ([1]; Day 2) was 5.75% and the “Cell Cycle Distribution (%) S” value ([1]; Day 2) was 19.43%. The “Cell Cycle Distribution (%) G1” value ([1]; Day 3) was 79.21%, the “Cell Cycle Distribution (%) G2/M” value ([1]; Day 3) was 3.49% and the “Cell Cycle Distribution (%) S” value ([1]; Day 3) was 17.3%. The “Cell Cycle Distribution (%) G1” value ([1]; Day 4) was 78.68%, the “Cell Cycle Distribution (%) G2/M” value ([1]; Day 4) was 6.13% and the “Cell Cycle Distribution (%) S” value ([1]; Day 4) was 15.19%. The Titer ([2]; D 1) was 0.47 g/L, the VCD ([2]; D 1) was 10.95 e6/mL and the Viability ([2]; D 1) was 94.83%. The qP ([2]; D 1) was 42.90 pg/c/d, the Titer ([2]; D 2) was 0.70 g/L and the VCD ([2]; D 2) was 9.61 e6/mL. It also gave a Viability ([2]; D 2) of 85.63%, a qP ([2]; D 2) of 72.84 pg/c/d and a Titer ([2]; D 3) of 0.96 g/L. For the same molecule, the VCD ([2]; D 3) was 10.14 e6/mL, the Viability ([2]; D 3) was 82.33% and the qP ([2]; D 3) was 94.99 pg/c/d. For the same molecule, the Titer ([2]; D 4) was 1.19 g/L, the VCD ([2]; D 4) was 12.66 e6/mL and the Viability ([2]; D 4) was 78.87%. For the same molecule, the qP ([2]; D 4) was 94.23 pg/c/d, the effect on viability ([2]; summary of Table 2) was “greater (but still modest) decreases in viability” and the growth arrest ([2]; summary of Table 2) was “more sustained growth arrest”. For the same molecule, the IC50 [3] was 2.75 nM, the Titer ([4]; 5 microM, D 1) was 0.29 g/L and the VCD ([4]; 5 microM, D 1) was 10.88 e6/mL. For the same molecule, the Viability ([4]; 5 microM, D 1) was 95.11%, the qP ([4]; 5 microM, D 1) was 26.34 pg/c/d and the Titer ([4]; 5 microM, D 2) was 0.49 g/L. For the same molecule, the VCD ([4]; 5 microM, D 2) was 11.15 e6/mL, the Viability ([4]; 5 microM, D 2) was 89.60% and the qP ([4]; 5 microM, D 2) was 43.95 pg/c/d. For the same molecule, the Titer ([4]; 5 microM, D 3) was 0.62 g/L, the VCD ([4]; 5 microM, D 3) was 13.45 e6/mL and the Viability ([4]; 5 microM, D 3) was 87.50%. For the same molecule, the qP ([4]; 5 microM, D 3) was 46.35 pg/c/d, the Titer ([4]; 5 microM, D 4) was 0.89 g/L and the VCD ([4]; 5 microM, D 4) was 20.16 e6/mL. For the same molecule, the Viability ([4]; 5 microM, D 4) was 87.46%, the qP ([4]; 5 microM, D 4) was 43.97 pg/c/d and the IC50 [5] was 14.8 nM.
With `CN(C)C1CCN(c2ccc(Nc3ncc4c(n3)C3(C=CC(C)(C)CC3)c3cnccc3-4)nc2)CC1` (stereo not shown) [Compound L, N-(5-(4-(dimethylamino)piperidin-1-yl)pyridin-2-yl)-4,4-dimethylspiro[cyclohex[2]ene-1,9′-pyrido[4′,3′:3,4]cyclopenta[1,2-d]pyrimidin]-2′-amine] the IC50 [3] was 1.4 nM, the Titer ([4]; 1.2 microM, D 1) was 0.28 g/L and the VCD ([4]; 1.2 microM, D 1) was 11.76 e6/mL. The Viability ([4]; 1.2 microM, D 1) was 94.88%, the qP ([4]; 1.2 microM, D 1) was 23.81 pg/c/d and the Titer ([4]; 1.2 microM, D 2) was 0.49 g/L. The VCD ([4]; 1.2 microM, D 2) was 13.63 e6/mL, the Viability ([4]; 1.2 microM, D 2) was 92.63% and the qP ([4]; 1.2 microM, D 2) was 35.94 pg/c/d. For the same molecule, the Titer ([4]; 1.2 microM, D 3) was 0.58 g/L, the VCD ([4]; 1.2 microM, D 3) was 18.56 e6/mL and the Viability ([4]; 1.2 microM, D 3) was 92.09%. The qP ([4]; 1.2 microM, D 3) was 31.42 pg/c/d, the Titer ([4]; 1.2 microM, D 4) was 0.70 g/L and the VCD ([4]; 1.2 microM, D 4) was 26.40 e6/mL. The Viability ([4]; 1.2 microM, D 4) was 91.17%, the qP ([4]; 1.2 microM, D 4) was 26.64 pg/c/d and the Titer ([4]; 2.4 microM, D 1) was 0.28 g/L. The VCD ([4]; 2.4 microM, D 1) was 11.43 e6/mL, the Viability ([4]; 2.4 microM, D 1) was 94.24% and the qP ([4]; 2.4 microM, D 1) was 24.20 pg/c/d. The Titer ([4]; 2.4 microM, D 2) was 0.47 g/L, the VCD ([4]; 2.4 microM, D 2) was 12.95 e6/mL and the Viability ([4]; 2.4 microM, D 2) was 91.47%. For the same molecule, the qP ([4]; 2.4 microM, D 2) was 36.29 pg/c/d, the Titer ([4]; 2.4 microM, D 3) was 0.60 g/L and the VCD ([4]; 2.4 microM, D 3) was 16.19 e6/mL. For the same molecule, the Viability ([4]; 2.4 microM, D 3) was 90.68%, the qP ([4]; 2.4 microM, D 3) was 37.05 pg/c/d and the Titer ([4]; 2.4 microM, D 4) was 0.76 g/L. The VCD ([4]; 2.4 microM, D 4) was 24.27 e6/mL, the Viability ([4]; 2.4 microM, D 4) was 91.43% and the qP ([4]; 2.4 microM, D 4) was 31.18 pg/c/d. The IC50 [5] was 23.5 nM.
